Test results taken from patent publication US11649245B2, “Cyclopropylamine compound as LSD1 inhibitor and use thereof” (HELIOEAST PHARMACEUTICAL CO., LTD., priority 2018, dated 2023).
Structures can show the parent of a compound that is named as a salt. Where two headings read alike, the source gives them in different places.

Assays:
[1] = tested on: human small cell lung cancer NCI-H1417 xenograft tumor model; assay: In vivo pharmacodynamic study on NCI-H1417 subcutaneous xenograft tumor in CB-17 SCID mice; details: compound 6 hydrochloride 1.5 mg/kg oral once a day, cisplatin 1 mg/kg i.p. twice a week
Method: The purpose of the experiment was to evaluate the in vivo efficacy of the compounds of the present disclosure on subcutaneous xenograft tumor of human small cell lung cancer NCI-H1417 cells in a CB-17 SCID mouse model.
Human small cell lung cancer NCI-H1417 cells (ATCC) were cultured in vitro in a single layer, the culture conditions were RPMI-1640 culture medium supplemented with 10% fetal bovine serum, 37° C. 5% CO2. When the cell saturation reached 80%-90%, the cells were collected, counted, and inoculated.
0.2 mL of 10×10^6 NCI-H1417 cells were subcutaneously inoculated into the right back of each mouse (PBS: Matrigel=1:1). Group administration was started when the average volume reached 100-150 mm^3.
The vehicle used in the experiment was 0.5% methylcellulose solution, the preparation method was: 5 g of methylcellulose was weighed and dissolved in 800 mL ultrapure water, stirred evenly and made up to 1000 mL with ultrapure water. The test substance was dissolved in a solvent and prepared into a uniform solution of a certain concentration, and stored at 4° C.
Cisplatin (Cisplatin, manufacturer Qilu Pharmaceutical Co., Ltd., 10 mg/bottle freeze-dried powder for injection, lot number 7D011A8) was added to 10 mL 0.9% NaCl to make a 1 mg/mL mother liquor, and stored at room temperature and protected from light. The mother liquor was aliquoted into 0.63 mL and stored at room temperature. 5.67 mL 0.9% NaCl was added to one of the 0.63 mL mother liquor to make a 0.1 mg/mL solution.
The experimental indicator is to investigate whether tumor growth was inhibited, delayed, or cured. Tumor diameters were measured with a vernier caliper twice a week. The tumor volume was calculated by the calculation formula: V=0.5a×b^2, a and b respectively represent the long and short diameters of the tumor.
The anti-tumor effect of the compounds was evaluated by TGI (%). TGI (%) can reflect the tumor growth inhibition rate. TGI (%) calculation: TGI (%)=[1-(the average tumor volume at the end of the administration in a treatment group—the average tumor volume at the beginning of the administration in the treatment group)/(the average tumor volume at the end of the treatment of the solvent control group—the average tumor volume at the beginning of the treatment of the solvent control group)]×100%.

[2] = In vivo pharmacokinetics in CD-1 mice; details: male CD-1 mice; for Cmax: route not given, read-out: Max concentration Cmax
Method: CD-1 mice (male, 7-9 weeks old, Shanghai Slac)
The rodent pharmacokinetic characteristics after intravenous injection and oral administration of the compounds were tested by standard protocols, in the experiment, the candidate compounds were formulated into clear solutions and administrated to mice via a single intravenous injection and oral administration. The vehicle for intravenous injection and oral administration was a mixed solution of 10% of dimethyl sulfoxide and 90% of 10% hydroxypropyl β cyclodextrin. This project used four male CD-1 mice, two mice were administered intravenously, with a dose of 1 mg/kg, and plasma samples were collected at 0 hour (before administration) and 0.0833, 0.25, 0.5, 1, 2, 4, 8, 24 hours after administration. The other two mice were orally administered by gavage, with a dose of 2 mg/kg, plasma samples were collected at 0 hour (before administration) and 0.25, 0.5, 1, 2, 4, 8, 24 hours after administration, whole blood samples were collected within 24 hours, which were centrifuged at 3000 g for 15 minutes, and the supernatants were separated to obtain plasma samples, 4 times volume of acetonitrile solutions containing internal standard were added to precipitate the protein, the mixtures were centrifuged to obtain the supernatants, the supernatants were added with water of equal volume and centrifuged again to take the supernatant for injection, and the blood drug concentration was quantitatively analyzed by the LC-MS/MS analysis method, and pharmacokinetic parameters were calculated, such as max concentration (Cmax), clearance (CL), half-life (T1/2), volumes of distribution (Vdss), the area under the plasma concentration-time curve (AUC0-last), bioavailability (F) etc.

human LSD1 = human LSD1 (Homo sapiens, UniProt O60341); assay: In vitro enzyme activity screening against LSD1 (HRP/Amplex Red fluorescence coupling enzyme method); type: biochemical; details: human LSD1, histone H3K4me peptide substrate 20 μM
Method: The purpose of this test was to detect the in vitro inhibitory activity of the compounds against LSD1. The enzyme used in this test was human LSD1, the standard substrate was histone H3K4me peptide (20 μM), the fluorescence coupling enzyme method was used to determine the activity of the compound by combining horseradish peroxidase (HRP) and fluorescent reagent Amplex Red to detect the H2O2 generation as a result of the reaction of LSD1. Compounds were tested in 10-dose IC50 mode with a 3-fold serial dilution starting at 10 μM. The enzyme and […] to start the reaction. Fluorescence detector: Envision, excitation wavelength: Ex/Em=530/590 […]

NCI-H1417 cells = assay: Antiproliferation activity on NCI-H1417 cells (CellTiter-Glo, 10 days); type: cell-based, human; details: incubated for 10 days
Method: Experimental purpose: to detect the antiproliferation activity of the compounds on NCI-H1417 cells.
Experimental materials: RPMI 1640 culture medium, fetal bovine serum, Promega CellTiter-Glo reagent. NCI-H1417 cell line purchased from ATCC. Envision multi-label reader (PerkinElmer).
Experimental method: the compounds were dissolved to 10 mM, then the compounds were diluted 5 times with DMSO in a compound plate, the compounds were diluted 3-fold with Bravo from a starting concentration of 2 mM to the 10th concentration, 250 nL of the solutions were transferred to the upper and lower duplicate wells on a blank 384 cell plate by Echo transfer plate, cell suspension of per well/1000 cells/50 μL was added to the transferred 250 nL DMSO/compound, the compounds were diluted 200-fold, i.e., the initial action concentration was 10 μM. The cell plate was placed in a carbon dioxide incubator and incubated for 10 days. 25 μL of Promega CellTiter-Glo reagent was added to each well on the cell plate and was shaken at room temperature for 10 minutes to stabilize the luminescence signal. Readings were performed by PerkinElmer Envision multi-label analyzer.
Data analysis: the equation (Max-Ratio)/(Max-Min)*100% was used to convert the original data into the inhibition rate, the value of IC50 can be obtained by curve fitting of four-parameters (the 205 mode in XLFITS, iDBS).

MV-4-11 cells = assay: Antiproliferation activity on MV-4-11 cells (CellTiter-Glo, 6 days); type: cell-based; details: incubated for 6 days
Text: Experimental purpose: to detect the antiproliferation activity of the compound to be tested on MV-4-11 cells.
(§1) Experimental materials: IMDM culture medium, fetal bovine serum, penicillin/streptomycin antibiotics purchased from Wisent. CellTiter-Glo (chemiluminescent cell viability assay reagent) reagents purchased from Promega. MV-4-11 cell line was purchased from Nanjing Cobioer Co., Ltd. Nivo Multi-Marker Analyzer (PerkinElmer).
Experimental method: MV-4-11 cells were planted in a white 96-well plate, 80 μL of cell suspension per well, which contained 6000 MV-4-11 cells. The cell plate was placed in a carbon dioxide incubator for overnight culture.
The compounds to be tested were diluted 5-fold with a pipet until the 8th concentration, i.e., diluted from 2 mM to 25.6 nM, double duplicate well experiment was set. 78 μL of the culture medium was added to an intermediate plate, and then 2 μL per well of the serially diluted compounds were transferred to the corresponding positions on the intermediate plate, after mixing, 20 μL per well was transferred to the cell plate. The cell plate was incubated in a carbon dioxide incubator for 6 days. Another cell plate was prepared and the signal value on the day of dosing was read as the maximum value (Max value in the equation below) to participate in the data analysis. 25 μL of the chemiluminescent cell viability assay reagent was added to each well of this cell plate, which was incubated at room temperature for 10 minutes to stabilize the luminescence signal. The multi-label analyzer was used for reading.
(§2) Data analysis: the equation (Sample-Min)/(Max-Min)*100% was used to convert the original data into the inhibition rate, the IC50 value can be obtained by curve fitting of four-parameters (“log(inhibitor) vs. response—Variable slope” mode in GraphPad Prism)).

HL60 cells = assay: Antiproliferation activity on HL60 cells (CellTiter-Glo, 6 days); type: cell-based; details: incubated for 6 days
Text: Experimental purpose: to detect the antiproliferation activity of the compound to be tested on HL60 cells.
as §1, with “RPMI-1640” for “IMDM”, “HL60” for “MV-4-11”, “line” for “line was”, “multi-label reader” for “Multi-Marker Analyzer”
Experimental method: HL60 cells were planted in a white 384-well plate, 40 μL of cell suspension per well, 600 HL60 cells were contained therein. The cell plate was placed in a carbon dioxide incubator for overnight culture. The compounds to be tested were diluted 5-fold with a pipet until the 10th concentration, i.e., diluted from 2 mM to 1.024 nM, double duplicate well experiment was set. 78 μL of the culture medium was added to an intermediate plate, and then 2 μL per well of the serially diluted compounds were transferred to the corresponding positions on the intermediate plate, after mixing, 10 μL per well was transferred to the cell plate. The cell plate was incubated in a carbon dioxide incubator for 6 days. Another cell plate was prepared and the signal value on the day of dosing was read as the maximum value (Max value in the equation below) to participate in the data analysis. 20 μL of chemiluminescent cell viability assay reagent was added to each well of this cell plate, which was incubated at room temperature for 10 minutes to stabilize the luminescence signal. The multi-label reader was used for reading.
as §2

[3] = oral 2 mg/kg vs intravenous 1 mg/kg
[4] = study doses 1 mg/kg intravenous, 2 mg/kg oral

SMILES | Half-life T1/2 (IV) ([2]; IV 1 mg/kg, 1 mg/kg) [min] | The area under the plasma concentration-time curve AUC0-last PO ([2]; PO 2 mg/kg, 2 mg/kg) [µM·h] | Bioavailability F [2, 3] [%] | Clearance CL [2, 4] [mL/min/kg] | Volumes of distribution Vdss [2, 4] [L/kg] | Cmax [2, 4] [nM] | IC50 (human LSD1) [nM] | IC50 (MV-4-11 cells) [nM] | IC50 (NCI-H1417 cells; Homo sapiens, NCI-H1417, 240 h) [nM] | IC50 (HL60 cells; Homo sapiens, HL-60, 144 h) [nM] | also measured
N.N.[Cl][Pt][Cl] [Cisplatin, reference compound] |  |  |  |  |  |  |  |  |  |  | Tumor volume mean ± SEM (28th day) ([1]; CB-17 SCID mice): 165 ± 22 mm^3; TGI ([1]; tumor growth inhibition rate, 28th day): 85.9%
O=C(O)c1ccc(CN2CCC3(CC2)CC(N[C@@H]2C[C@H]2c2ccccc2)CO3)cc1 (some centres unmarked) [Hydrochloride of the compound 15] | 29.4 | 0.765 | 39.1 | 41.8 | 0.835 | 919 | 353 | 13.2 |  |  | IC50 (NCI-H1417 cells): 13.1 nM; IC50 (HL60 cells): 13.8 nM
O=C(O)c1ccc(CN2CCC3(CC2)CC(N[C@@H]2C[C@H]2c2ccccc2)CO3)cc1 (some centres unmarked) [Hydrochloride of the compound 16] | 34.7 | 0.891 | 36.9 | 33.8 | 0.88 | 860 | 262 | 13.7 | 12.1 | 8.46 | 
O=C(O)c1ccc(CN2CCC3(CC2)CC(N[C@@H]2C[C@H]2c2ccccc2)CO3)cn1 (some centres unmarked) [Hydrochloride of the compound 20] |  |  |  |  |  |  | 242 |  | 3.99 | 8.99 | half-life ([2]; male, CD-1, mouse, plasma, iv, 1 mg/kg, IV 1 mg/kg, read-out: Half-life T1/2 (IV) (converted)): 54.3 min; clearance ([2]; male, CD-1, mouse, plasma, iv, 1 mg/kg, study doses 1 mg/kg intravenous, 2 mg/kg oral, read-out: Clearance CL): 19.7 mL/min/kg; Vd ([2]; male, CD-1, mouse, plasma, iv, 1 mg/kg, study doses 1 mg/kg intravenous, 2 mg/kg oral, read-out: Volumes of distribution Vdss): 0.752 L/kg; Cmax ([2]; male, CD-1, mouse, plasma, study doses 1 mg/kg intravenous, 2 mg/kg oral): 714 nM; AUC(0-t) ([2]; male, CD-1, mouse, plasma, po, 2 mg/kg, PO 2 mg/kg, read-out: The area under the plasma concentration-time curve AUC0-last PO): 1.34 µM·h; bioavailability ([2]; male, CD-1, mouse, plasma, po, 2 mg/kg, oral 2 mg/kg vs intravenous 1 mg/kg, read-out: Bioavailability F): 29%; IC50 (MV-4-11 cells; Homo sapiens, MV4-11, 144 h): 9.56 nM
